This note sets out measurements from ChEMBL document CHEMBL4007495, “Substrate and inhibitor specificity of kynurenine monooxygenase from Cytophaga hutchinsonii” (Bioorg Med Chem Lett, 2017).

A short description of assay [1]: Competitive inhibition of Cytophaga hutchinsonii KMO using 5-Br-kynurenine as substrate assessed as decrease in NADPH consumption by UV/Vis spectrophotometer.
Assay [2] concerns Cytophaga hutchinsonii. Kind of assay: Ratio of Kcat to Km for Cytophaga hutchinsonii KMO.
Assay [3] concerns Cytophaga hutchinsonii. Kind of assay: Activity at Cytophaga hutchinsonii KMO assessed as NADPH consumption by UV/Vis spectrophotometer.
In assay [4] the test system is Cytophaga hutchinsonii. Kind of assay: Activity at Cytophaga hutchinsonii KMO by ESI-LC/MS method.
Assay [5] concerns Cytophaga hutchinsonii. Kind of assay: Activity at Cytophaga hutchinsonii KMO at 0.2 mM after 30 mins by HPLC method.

Calls of active or inactive are those of the source. The rule behind the calls is not given here.

As a reminder, the Ki is the equilibrium dissociation constant of an inhibitor or competing ligand from its target. The Km is the concentration of substrate that gives half-maximal velocity. The kcat is the maximal rate divided by the concentration of active sites.

Consider `O=C(O)CNC(=O)c1ccc(Cl)c(Cl)c1`, for which the inhibition constant (Ki) in assay [1] came out at 34 µM.
Same read-out and setting: next, `Nc1c(Cl)cc(Br)cc1C(=O)CC(N)C(=O)O` (stereo not drawn): 11 µM; `COc1ccc(C(=O)NCC(=O)O)cc1OC`: 1000 µM; `Cc1cc(Br)cc(C(=O)CC(N)C(=O)O)c1N` (stereo not drawn): 10.2 µM.
As for `Nc1ccc(Cl)cc1C(=O)C[C@H](N)C(=O)O`, the kcat/Km in assay [2] came out at 4 ×10⁵ /M/s. In addition, in assay [3], the Km came out at 2 µM and the turnover number (kcat) is 0.8 s⁻¹.
Take `Nc1c(Br)cc(Br)cc1C(=O)C[C@H](N)C(=O)O`: the inhibitory constant (Ki) in assay [1] is 1.5 µM.
Take `Nc1ccccc1C(=O)C[C@H](N)C(=O)O`: the kcat/Km in assay [2] stood at 5.3 ×10⁴ /M/s. In assay [3], the Km turned out to be 67 µM and the kcat stood at 2 s⁻¹.
For `Nc1ccc(Br)cc1C(=O)C[C@H](N)C(=O)O`, the outcome in assay [4] was Active. The outcome in assay [5] was Active. Moreover, in assay [2], the kcat/Km amounted to 1.3 ×10⁵ /M/s. In assay [3], the Michaelis-Menten constant (Km) is 4.5 µM and the turnover number (kcat) was 0.6 s⁻¹.
For `Cc1cccc(C(=O)CC(N)C(=O)O)c1N` (stereo not drawn), the Ki in assay [1] was found to be 8.6 µM.
Turning to `Nc1c(Cl)cccc1C(=O)CC(N)C(=O)O` (stereo not drawn), the Ki in assay [1] came to 13.8 µM.
